According to paper PMC6026870, “Selective induction of cancer cell death by VDAC1‐based peptides and their potential use in cancer therapy” (Molecular Oncology, 2018):

How the values were obtained:
[1] = tested on: A549, MDA‐MB‐231 and U‐87MG xenografts; test: TUNEL assay on xenograft tumor sections; type: in vivo, mouse; details: TUNEL staining of paraffin sections; no TUNEL‐positive cells in control HBSS‐TTs (Fig. 7A–C)
Experimental: U‐87MG cells (3 × 10^6/mouse), A549 cells (5 × 10^6/mouse), or MDA‐MB‐231 cells (3 × 10^6/mouse) were inoculated subcutaneously (s.c.) into the hind leg flanks of athymic 8‐week‐old male nude mice (Envigo, Huntingdon, UK). Tumor size was measured using a digital caliper and volume was calculated, and when reached 50–100 mm^3 for each tumor type, mice were randomly divided into two groups (five mice per group). […] The xenografts were injected (two points, 20 μL per tumor) every two days. Beginning on the day of inoculation, mouse weight and tumor volume were monitored twice a week. Experiments were terminated after 14, 29, or 20 days for U‐87MG‐, MDA‐MB‐231‐, or A549‐based tumors, respectively. The mice were sacrificed and tumors were excised. Half of each tumor was fixed in 4% buffered formaldehyde, paraffin‐embedded, and processed for IHC, while the second half was frozen in liquid nitrogen for immunoblotting and qPCR analyses. These experimental protocols were approved by the Institutional Animal Care and Use Committee of Ben‐Gurion University.
Paraffin‐embedded‐fixed tumor sections were processed for a TUNEL assay using the DeadEnd Fluorometric TUNEL system according to the manufacturer's instructions. […]

[2] = tested on: A549 cells; test: Apoptosis, acridine orange/ethidium bromide staining; type: cell-based, human; details: A549, 3 h; quantitation, mean ± SE (n = 3) (Fig. 5E)
Experimental: For PI and annexin V–FITC staining, A549 or MDA‐MB‐231 cells, untreated or treated with VDAC1‐based peptides, were collected (1500 g for 5 min), washed, and resuspended in 200 μL binding buffer (10 mM HEPES/NaOH (pH 7.4), 140 mM NaCl, and 2.5 mM CaCl2). Annexin V–FITC staining was performed according to the recommended protocol. Cells were then washed once with binding buffer and resuspended in 200 μL binding buffer, to which PI was added immediately before flow cytometric analysis. At least 10 000 events were collected, recorded on a dot plot, and analyzed by flow cytometer. Acridine orange/ethidium bromide staining was carried as described previously (Zaid et al., 2005), with cells visualized by fluorescence microscopy (Olympus LX2‐KSP, Tokyo, Japan), and images were captured with a CCD camera. About 200 cells were counted for each experiment.

CC[C@H](C)[C@H](NC(=O)[C@H](Cc1ccc(O)cc1)NC(=O)[C@@H]1CCCN1C(=O)[C@H](CCCNC(=N)N)NC(=O)[C@H](Cc1c[nH]cn1)NC(=O)[C@@H](CO)NC(=O)[C@@H](Cc1c[nH]c2ccccc12)NC(=O)[C@H](NC(=O)[C@@H](Cc1c[nH]c2ccccc12)NC(=O)[C@@H](CCC(=O)O)NC(=O)[C@@H](CCCCN)NC(=O)[C@@H](CCCCN)NC(=O)[C@@H](CC(C)C)NC(=O)[C@@H](CCC(=O)O)NC(=O)[C@H](NC(=O)[C@@H](C)NC(=O)[C@H](NC(=O)[C@@H](CC(N)=O)NC(=O)[C@@H](CC(C)C)NC(=O)[C@@H](C)NC(=O)[C@@H](Cc1c[nH]c2ccccc12)NC(=O)[C@H](NC(=O)[C@@H](C)NC(=O)CNC(=O)[C@@H](CC(N)=O)NC(=O)[C@@H](CO)NC(=O)[C@@H](CC(N)=O)NC(=O)[C@@H](CCCCN)NC(=O)[C@@H](Cc1c[nH]c2ccccc12)NC(=O)[C@H](NC(=O)[C@@H](Cc1c[nH]c2ccccc12)NC(=O)[C@H](N)CCCCN)[C@H](C)O)[C@H](C)O)C(C)C)[C@H](C)O)[C@H](C)O)C(=O)N[C@@H](C)C(=O)N[C@@H](Cc1c[nH]cn1)C(=O)O [R‐Tf‐D‐LP4]
TUNEL‐positive cells in treated tumors [1]: the majority of the cells were TUNEL‐positive | apoptotic cell death (acridine orange/ethidium bromide) [2]: over 70%
